The results in this text go back to patent US20120129843A1, “PYRIDYL-THIAZOLYL INHIBITORS OF PRO-MATRIX METALLOPROTEINASE ACTIVATION” (priority 2010, published 2012).

Counter-ions that a name gives are not always drawn.

Experiment [1] deals with T1, proMMP9(20-445;ΔFnII) (SEQ ID NO:6) (Homo sapiens, UniProt P14780, DEL216-390).
T1 construct: start methionine (N); made in house; host or cells: E. coli BL21(DE3) RIL
T1 sequence (P14780 with tags, fused parts or gaps DEL216-390): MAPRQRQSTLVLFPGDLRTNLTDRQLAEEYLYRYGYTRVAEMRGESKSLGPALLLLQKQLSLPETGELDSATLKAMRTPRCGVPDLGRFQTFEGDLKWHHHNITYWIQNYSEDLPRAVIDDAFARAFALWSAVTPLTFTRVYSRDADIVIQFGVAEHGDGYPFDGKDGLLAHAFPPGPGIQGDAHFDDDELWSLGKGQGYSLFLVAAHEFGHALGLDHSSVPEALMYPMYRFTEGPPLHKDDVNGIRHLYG
Put plainly: ThermoFluor binding assay with proMMP9(20-445;ΔFnII). In outline:
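Thermal-shift binding using 2.8 μM proMMP9(20-445;ΔFnII) with 50 μM 1,8-ANS in 50 mM HEPES pH 7.0, 100 mM NaCl, 0.001% Tween-20, 2.5 mM MgCl2, 300 μM CaCl2. Compound serially diluted; heated 40–90 °C at 1 °C/min, fluorescence 500 nm. Tm shifts fitted using DSC/ThermoFluor-derived thermodynamic parameters.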
(In general: DSF heats the sample and reads unfolding from a dye or from intrinsic fluorescence.)

Experiment [2] has as its target T2, proMMP9(67-444;ΔFnII) (SEQ ID NO:5) (Homo sapiens, UniProt P14780, DEL216-390).
T2 construct: start methionine (N); made in house; host or cells: E. coli BL21(DE3) RIL
T2 sequence (P14780 with tags, fused parts or gaps DEL216-390): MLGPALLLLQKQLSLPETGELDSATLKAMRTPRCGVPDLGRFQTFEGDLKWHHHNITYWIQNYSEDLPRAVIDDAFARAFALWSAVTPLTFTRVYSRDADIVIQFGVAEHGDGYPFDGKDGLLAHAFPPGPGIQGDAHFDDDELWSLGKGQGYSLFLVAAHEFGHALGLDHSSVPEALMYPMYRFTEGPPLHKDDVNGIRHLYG
Put plainly: ThermoFluor binding assay with proMMP9(67-444;ΔFnII). How it is done: The ThermoFluor® (TF) assay is a 384-well plate-based binding assay that measures thermal stability of proteins (Biomol Screen 2001, 6, 429-40; Biochemistry 2005, 44, 5258-66). The experiments were carried out using instruments available from Johnson & Johnson Pharmaceutical Research & Development, LLC. TF dye used in all experiments was […] (1,8-ANS) (Invitrogen: A-47).
Compounds were arranged in a pre-dispensed plate (Greiner Bio-one: 781280), wherein compounds were serially diluted in 100% DMSO across 11 columns within a series. Columns 12 and 24 were used as DMSO reference and contained no compound. For multiple compound concentration-response experiments, the compound aliquots ([…]) were robotically predispensed directly into black 384-well polypropylene PCR microplates (Abgene: TF-0384/k) using a Cartesian Hummingbird liquid handler (DigiLab, Holliston, Mass.). Following compound dispense, protein and dye solutions were added to achieve the final assay volume of 3 μL. The assay solutions were overlayed with 1 μL of silicone oil (Fluka, type DC 200: 85411) to prevent evaporation.
Assay plates were robotically loaded onto a thermostatically controlled PCR-type thermal block and then heated from 40 to 90° C. at a ramp-rate of 1° C./min for all experiments. Fluorescence was measured by continuous illumination with UV light (Hamamatsu LC6) supplied via fiber optics and filtered through a band-pass filter (380-400 nm; >60D cutoff). Fluorescence emission of the entire 384-well plate was detected by measuring light intensity using a CCD camera (Sensys, Roper Scientific) filtered to detect 500±25 nm, resulting in simultaneous and independent readings of all 384 wells. A single image with 20-sec exposure time was collected at each temperature, and the sum of the pixel intensity in a given area of the assay plate was recorded vs temperature and fit to standard equations to yield the Tm (J Biomol Screen 2001, 6, 429-40).
Thermodynamic parameters necessary for fitting compound binding for each proMMP were estimated by differential scanning calorimetry (DSC) and from ThermoFluor® data. The heat capacity of unfolding for each protein was estimated from the molecular weight and from ThermoFluor® dosing data.
ThermoFluor® with proMMP9(67-444;ΔFnII) (SEQ ID NO:5)
The protein sample preparations had to include a desalting buffer exchange step via a PD-10 gravity column (GE Healthcare). The desalting buffer exchange was performed prior to diluting the protein to the final assay concentration of 3.5 μM proMMP9(67-444;ΔFnII) (SEQ ID NO:5). The concentration of proMMP9(67-444;ΔFnII) (SEQ ID NO:5) was determined spectrophotometrically based on a calculated extinction coefficient of ε280=33900 M^−1cm^−1, a calculated molecular weight of 22.6 kDa, and calculated pI of 5.20. ThermoFluor® reference conditions were defined as follows: 80 μg/mL (3.5 μM) proMMP9(67-444;ΔFnII) (SEQ ID NO:5), 50 μM 1,8-ANS, pH 7.0 Buffer (50 mM HEPES pH 7.0, 100 mM NaCl, 0.001% Tween-20, 2.5 mM MgCl2, 300 μM CaCl2). The thermodynamic parameters for proMMP9(67-444;ΔFnII) (SEQ ID NO:5) are as follows: Tm (° C.)=63 (+/−0.1), ΔUH(Tm) (cal mol^−1)=105000(+/−5000), ΔUS(Tm) (cal mol^−1 K^−1)=[…], ΔUCp (cal mol^−1 K^−1)=2000.

The target of experiment [3] is T3, full-length proMMP9(1-707) (SEQ ID NO:1), activation by catalytic MMP3 (Homo sapiens, UniProt P14780, R574P).
T3 construct: made in house; host or cells: HEK293 (proMMP9, secreted); E. coli (MMP3)
T3 sequence (P14780 20-707 R574P): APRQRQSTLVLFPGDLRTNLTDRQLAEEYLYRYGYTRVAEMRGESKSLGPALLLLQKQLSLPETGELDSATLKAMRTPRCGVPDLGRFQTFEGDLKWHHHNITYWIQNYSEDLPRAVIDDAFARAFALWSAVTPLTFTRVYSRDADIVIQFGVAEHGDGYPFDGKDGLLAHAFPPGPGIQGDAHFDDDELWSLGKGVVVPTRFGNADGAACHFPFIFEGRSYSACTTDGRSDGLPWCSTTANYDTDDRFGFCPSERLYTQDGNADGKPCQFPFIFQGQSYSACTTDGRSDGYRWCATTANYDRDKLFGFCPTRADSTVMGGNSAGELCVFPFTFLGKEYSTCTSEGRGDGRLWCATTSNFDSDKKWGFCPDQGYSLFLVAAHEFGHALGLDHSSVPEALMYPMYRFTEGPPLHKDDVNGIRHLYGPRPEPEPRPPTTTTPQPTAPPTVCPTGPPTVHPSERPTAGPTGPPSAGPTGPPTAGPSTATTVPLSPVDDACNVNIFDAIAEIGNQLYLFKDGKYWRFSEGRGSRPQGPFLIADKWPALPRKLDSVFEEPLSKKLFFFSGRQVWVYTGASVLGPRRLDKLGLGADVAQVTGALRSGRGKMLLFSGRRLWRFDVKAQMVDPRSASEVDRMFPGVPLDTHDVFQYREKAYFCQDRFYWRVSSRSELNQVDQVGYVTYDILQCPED
As to the kind of experiment: proMMP9/MMP3 P126 Activation Assay. Type of experiment: biochemical. As to the method: proMMP9/MMP3 P126 Activation Assay
The reaction volume was 50 μL. […] Reactivity of residual MMP3 towards P-126 substrate was minimal under these conditions.

Take `CC(C)Oc1ccc(S(N)(=O)=O)cc1Nc1nc(-c2ccc(C(=O)NC3CC(C)(C)N(C)C(C)(C)C3)nc2)cs1` [Example 84, 5-(2-((2-Isopropoxy-5-sulfamoylphenyl)amino)thiazol-4-yl)-N-(1,2,2,6,6-pentamethylpiperidin-4-yl)picolinamide.TFA]: the Kd in experiment [1] was determined as 250 nM; in experiment [2] it was 200 nM. In experiment [3], the IC50 came out at 260 nM.

As for `CC(C)Oc1ccc(S(N)(=O)=O)cc1Nc1nc(-c2ccc(C(=O)O)nc2)cs1` [Example 45, 5-[2-(2-Isopropoxy-5-sulfamoyl-phenylamino)-thiazol-4-yl]-pyridine-2-carboxylic acid.HCl], the dissociation constant Kd was 470 nM in experiment [1] and 3700 nM in experiment [2]. In experiment [3], this compound yielded an IC50 of 370 nM.

Consider `CC(C)Oc1ccc(C(N)=O)cc1Nc1nc(-c2ccnc(N3CCN(C)CC3)c2)cs1` [Example 28, 4-Isopropoxy-3-{4-[2-(4-methyl-piperazin-1-yl)-pyridin-4-yl]-thiazol-2-ylamino}-benzamide.TFA], for which the Kd is 82 nM in experiment [1] and 990 nM in experiment [2]. The IC50 in experiment [3] was 210 nM.

With `CC(C)Oc1ccc(S(N)(=O)=O)cc1Nc1nc(-c2ccc(C(=O)N3CCN(C(C)C)CC3)nc2)cs1` [Example 51, 4-Isopropoxy-3-{4-[6-(4-isopropyl-piperazine-1-carbonyl)-pyridin-3-yl]-thiazol-2-ylamino}-benzenesulfonamide.TFA], the Kd in experiment [1] is 1200 nM; in experiment [2], 2700 nM. Also, the IC50 in experiment [3] was found to be 1800 nM.

For `CC(C)Oc1ccc(S(N)(=O)=O)cc1Nc1nc(-c2ccc(C(=O)NCCN(C)C)nc2)cs1` [Example 50, 5-[2-(2-Isopropoxy-5-sulfamoyl-phenylamino)-thiazol-4-yl]-pyridine-2-carboxylic acid (2-dimethylamino-ethyl)-amide.TFA], the Kd in experiment [1] is 90 nM; in experiment [2], 130 nM. The compound also registered an IC50 in experiment [3] of 160 nM.

Consider `CN1CCN(c2ccc(-c3csc(Nc4cc(S(N)(=O)=O)ccc4OC(F)(F)F)n3)cn2)CC1` [Example 30, 3-{4-[6-(4-Methyl-piperazin-1-yl)-pyridin-3-yl]-thiazol-2-ylamino}-4-trifluoromethoxy-benzenesulfonamide], for which the dissociation constant (Kd) is 430 nM in experiment [1] and 690 nM in experiment [2]. In experiment [3], the 50% inhibitory concentration (IC50) was 750 nM.

In the case of `COCCCc1ccc(-c2csc(Nc3cc(S(N)(=O)=O)ccc3OC(C)C)n2)cn1` [Example 94, 4-Isopropoxy-3-((4-(6-(3-methoxypropyl)pyridin-3-yl)thiazol-2-yl)amino)benzenesulfonamide.TFA], the Kd in experiment [1] is 430 nM; in experiment [2], 1300 nM. The same compound gave an IC50 in experiment [3] of 520 nM.

Turning to `CC(C)Oc1ccc(S(N)(=O)=O)cc1Nc1nc(-c2ccc(C(=O)N3CCN(C)CC3)nc2)cs1` [Example 46, 4-Isopropoxy-3-{4-[6-(4-methyl-piperazine-1-carbonyl)-pyridin-3-yl]-thiazol-2-ylamino}-benzenesulfonamide.TFA], the values for the Kd in experiment [1] and in experiment [2] were 1300 nM and 6600 nM, respectively. The compound further registered a 50% inhibitory concentration (IC50) in experiment [3] of 1300 nM.

For the compound `CC(C)Oc1ccc(S(N)(=O)=O)cc1Nc1nc(-c2ccc(N3CCNC(=O)C3)nc2)cs1` [Example 64, 4-Isopropoxy-3-((4-(6-(3-oxopiperazin-1-yl)pyridin-3-yl)thiazol-2-yl)amino)benzenesulfonamide.TFA], the results for the Kd in experiment [1] and in experiment [2] were 260 nM and 2500 nM, respectively. For the same compound, in experiment [3], the IC50 came to 120 nM.

With `CN1CCN(c2cc(-c3csc(Nc4cc(C(N)=O)ccc4OC(F)(F)F)n3)ccn2)CC1` [Example 36, 3-{4-[2-(4-Methyl-piperazin-1-yl)-pyridin-4-yl]-thiazol-2-ylamino}-4-trifluoromethoxy-benzamide.TFA], the Kd came to 1300 nM in experiment [1] and 7200 nM in experiment [2]. In addition, half-maximal inhibition in experiment [3] (IC50) required 2300 nM.

By Kd is commonly meant a measure of binding affinity in units of concentration. As a reminder, the IC50 is the point on the concentration scale where inhibition reaches its midpoint.
